Test results from patent US9353152B2, “Induction of the mitochondrial permeability transition” (NewSouth Innovations Pty Limited, priority 2002, dated 2016).
“And” between values parts separate entries of the source, which are not always exact repeats. Equal entries are not always repeated. Where two headings read alike, the source gives them in different places.

Tests used:
[1] = Titration of arsenoxide compounds with DTT; type: physicochemical; conditions: GSAO versus Compound 1
CAM angiogenesis = experiment: Chick chorioallantoic membrane (CAM) angiogenesis assay; type: in vivo; conditions: 5, 10 or 50 μg per pellet, 48 h
Protocol: Fertilised 3 day-old white Leghorn eggs (Spafas, Norwich, Conn.) were cracked, the embryos with intact yolks placed in 20×100 mm petri dishes and incubated for 3 days at 37° C. and 3% CO2 (Folkman, 1985). Methylcellulose (Fisher Scientific, Fair Lawn, N.J.) discs containing 5, 10 or 50 μg of either GSAA or GSAO were then applied to the CAM of individual embryos and incubated for 48 h at 37° C. and 3% CO2. The discs were made by desiccation of GSAA or GSAO in 10 μl of 0.45% methycellulose on teflon rods. The CAMs were observed using a stereomicroscope and scored for no obvious affect or inhibition of CAM angiogenesis as defined by avascular zones. On some occasions CAM blood vessels were injected with India ink and photographed.

MPTP [2] = molecular target: T1, MPTP (Rattus norvegicus, UniProt Q09073); experiment: Mitochondria swelling assay (MPT induction, decrease in light scattering at 520 nm); type: biochemical
T1 construct: Mitochondria were isolated from the livers of ˜250 g male Wistar rats; from tissue; host or cells: rat liver mitochondria (male Wistar rats)
T1 sequence (Q09073 2-298 limits assumed): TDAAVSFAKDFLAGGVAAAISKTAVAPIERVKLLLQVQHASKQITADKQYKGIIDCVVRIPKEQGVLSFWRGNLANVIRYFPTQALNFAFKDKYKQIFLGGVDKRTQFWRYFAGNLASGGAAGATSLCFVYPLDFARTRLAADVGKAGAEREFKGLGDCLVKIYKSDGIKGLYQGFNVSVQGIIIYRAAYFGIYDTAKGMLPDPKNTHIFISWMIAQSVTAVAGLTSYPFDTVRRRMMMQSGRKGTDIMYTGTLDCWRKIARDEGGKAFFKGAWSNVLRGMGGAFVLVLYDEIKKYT

BxPC-3 tumours = experiment: Primary tumour growth assay; type: in vivo, SCID mice; conditions: 10 mg/kg/day s.c., SCID mice, BxPC-3
Protocol: (§1) Female 7 to 9 week old SCID or C57Bl6/J mice were used (Massachusetts General Hospital, Boston, Mass.). Mice were held in groups of 3 to 5 at a 12 hour day and night cycle and were given animal chow and water ad libidum. SCID or C57Bl6/J mice were anaesthetised by inhalation of isoflurane, the dorsal skin shaved and cleaned with ethanol, and a suspension of 2.5×10^6 BxPC-3, HT1080 or LLC cells in 0.2 mL of PBS, or saline for LLC cells, was injected S.C. in the proximal midline. LLC cells were prepared according to O'Reilly et al. (1997). Tumour volume was calculated using the relationship, a·b^2·0.52, where a is the longest and b the shortest diameter.

[3] = test system: LLC (murine lung carcinoma); experiment: Proliferation arrest and loss of viability (cell number and propidium iodide, flow cytometry); type: cell-based; conditions: 48 h
Protocol: (§2) To distinguish between the anti-proliferative and pro-apoptotic effects of GSAO, treated cells were stained with propidium iodide (PI) to detect late-apoptotic or dead cells. The total number of cells and the proportion of cells that were PI-positive following 48 h treatment with GSAO were measured by flow cytometry.

[4] = test system: HDMVE (human dermal endothelial); experiment: as above; type: cell-based; conditions: 48 h
Protocol: as §2

[5] = test system: BAE (bovine aortic endothelial); experiment: as above; type: cell-based; conditions: 48 h
Protocol: as §2

[6] = test system: BxPC-3 (human pancreatic carcinoma); experiment: as above; type: cell-based; conditions: for IC50: BxPC-3, 48 h
Protocol: as §2

[7] = test system: A549 (human lung carcinoma); experiment: as above; type: cell-based; conditions: A549, 48 h
Protocol: as §2

[8] = test system: HL60 (human erythroid leukaemia); experiment: as above; type: cell-based; conditions: HL60, 48 h
Protocol: as §2

[9] = test system: HT1080 (human fibrosarcoma); experiment: as above; type: cell-based; conditions: HT1080, 48 h
Protocol: as §2

[10] = test system: bovine vascular smooth muscle cells; experiment: Proliferation arrest; type: cell-based
Protocol: as §2

LLC tumours = experiment: Primary tumour growth assay; type: in vivo; conditions: 10 mg/kg/day s.c., C57Bl6/J mice
Protocol: as §1

HT1080 tumours = experiment: Primary tumour growth assay; type: in vivo; conditions: 10 mg/kg/day s.c., SCID mice
Protocol: as §1

MPTP [11] = molecular target: T1, MPTP; type: biochemical
BAE cells [12] = experiment: ATP assay (luciferin/luciferase); type: cell-based, bovine; conditions: 150 μM GSAO, 24 h
Protocol: BAE cells in six-well culture plates were arrested for 24 h in 0.5% serum or left in 10% serum, then treated for 24 h with 0, 60 or 150 μM GSAO. The cells were washed once then resuspended in 0.4 mL PBS containing 0.3% bovine serum albumin. A 50 μl sample of cells was mixed with 50 μL water and 100 μL ATP releasing agent (Sigma) and ATP concentration was measured using a luciferin/luciferase ATP assay mix (Sigma). Light units were converted to ATP concentrations using an ATP standard in place of the 50 μL water. Cell number was counted using a Beckman Coulter Counter and mol of ATP was expressed per million cells.

BAE cells [13] = type: cell-based, bovine
[14] = Tolerability in tumour-bearing mice; type: in vivo, SCID or C57Bl6/J mice
Protocol: as §1

[15] = read-out: Loss of Viability IC50
[16] = read-out: Proliferation Arrest IC50

N[C@@H](CCC(=O)N[C@@H](CSCC(=O)Nc1ccc([As]=O)cc1)C(=O)NCC(=O)O)C(=O)O (stereo partly drawn) [GSAO, 4-(N—(S-glutathionylacetyl)amino)-phenylarsenoxide]
arsenical reactivity (titration with DTT) [1]: no significant difference
inhibition of CAM angiogenesis (avascular zones) (CAM angiogenesis): inhibited CAM angiogenesis in a concentration-dependent manner
half-time for GSAO mediated swelling of the mitochondria (MPTP [2]; 50-200 μM GSAO, increasing Ca^2+ concentration): reduced by added Ca^2+
swelling of isolated rat liver mitochondria (MPTP [2]; GSAO 25-200 μM, GSAA, GSCA 100 μM, 60 min): triggered swelling
inhibition of the rate of tumour growth (BxPC-3 tumours): > 90%
IC50 [3]: 140 µM
IC50 [4, 15]: ~35 µM and 35 µM
IC50 [4, 16]: ~15 µM and 15 µM
IC50 [5, 15]: ~75 µM and 75 µM
IC50 [5, 16]: ~10 µM and 10 µM
IC50 [6, 15]: > 320 µM
IC50 [6, 16]: > 320 µM
concentration without effect on BxPC-3 proliferation relative to endothelial proliferation arrest ([6]; Table 1): > 30 fold
IC50 [7, 15]: 150 µM
IC50 [7, 16]: 80 µM
IC50 [8, 15]: 140 µM
IC50 [8, 16]: 50 µM
IC50 [9, 15]: 130 µM
IC50 [9, 16]: 95 µM
IC50 [10]: ~30 µM
inhibition of the rate of tumour growth (LLC tumours): ~50%
inhibition of the rate of tumour growth (HT1080 tumours): ~70%
MPTP Swelling Rate Increase/GSAO* Mean (MPTP [11]): 1
cellular ATP levels in proliferating BAE cells (BAE cells [12]): reduced ATP levels in proliferating cells to that of growth-quiescent cells
cellular levels of O2^− versus concentration (BAE cells [13]): increased linearly with GSAO concentration in proliferating, but not growth-quiescent, BAE cells
decrease in H2O2 (BAE cells [13]): 30%
increase in the level of O2^− (BAE cells [13]): 100%
adverse affects of administration ([14]; 10 mg/kg/day s.c.): no apparent adverse affects
morphological changes in the heart, lungs, liver, kidneys, and spleen ([14]; 10 mg/kg/day s.c.): no morphological changes
average mice weights over the course of the experiments ([14]; GSAO versus GSAA treatment groups): the same
